Columns and labels:
[1] = Volume of distribution at steady state in human at 1 mg/kg; assay type: ADME, organism-based; parameters: dose 1 mg/kg; conditions: in vivo, read-out: Vdss
[2] = Volume of distribution at steady state in human; conditions: in vivo
[3] = Clearance in human at 200 ug; assay type: ADME, organism-based; conditions: in vivo
[4] = Volume of distribution at steady state in human at 50 mg, iv; assay type: ADME, organism-based; conditions: in vivo, read-out: Vdss
[5] = Volume of distribution at steady state in human at 25 mg, iv; assay type: ADME, organism-based; conditions: in vivo, read-out: Vdss
[6] = Volume of distribution at steady state in human at 1 mg/kg, iv administered 20 mins infusion; assay type: ADME, organism-based; parameters: dose 1 mg/kg, route intravenous; conditions: in vivo, read-out: Vdss
[7] = Volume of distribution at steady state in human at 150 mg, iv; assay type: ADME, organism-based; conditions: in vivo, read-out: Vdss
[8] = Volume of distribution at steady state in human administered three sequential 4-h infusion at 1, 5 and 15 mg/hr; assay type: ADME, organism-based; conditions: in vivo, iv, read-out: Vdss
[9] = Mean residence time in human at 2 mg, iv; assay type: ADME, organism-based; conditions: in vivo
[10] = Half life in human at 2 mg, iv; assay type: ADME, organism-based; conditions: in vivo
[11] = Clearance in human at 2 mg, iv; assay type: ADME, organism-based; conditions: in vivo
[12] = Volume of distribution at steady state in human administered 1 to 12 g doses with 2 to 3.5 hrs iv infusion; assay type: ADME, organism-based; conditions: in vivo, read-out: Vdss
[13] = Volume of distribution at steady state in human at 130 mg administered 90 mins infusion; assay type: ADME, organism-based; conditions: in vivo, iv, read-out: Vdss
[14] = Volume of distribution at steady state in human at 2.5 mg, iv administered as bolus dose; assay type: ADME, organism-based; conditions: in vivo, read-out: Vdss
[15] = Volume of distribution at steady state in human dosed 1 hr iv infusion; conditions: in vivo
[16] = Volume of distribution at steady state in human at 0.1 mg/kg administered 15 mins infusion; assay type: ADME, organism-based; parameters: dose 0.1 mg/kg; conditions: in vivo, iv, read-out: Vdss
[17] = Total clearance in human at 0.1 mg/kg administered 15 mins infusion; assay type: ADME, organism-based; parameters: dose 0.1 mg/kg; conditions: in vivo, iv
[18] = Volume of distribution in human at 100 mg administered 30 mins infusion; assay type: ADME, organism-based; conditions: in vivo, iv
[19] = Volume of distribution at steady state in human at 0.2 mg, iv; assay type: ADME, organism-based; conditions: in vivo, read-out: Vdss
[20] = Clearance in human given 31 administration across 6 doses 2.5 to 25 mg administered 30 mins infusion each dose separated by 13 days; assay type: ADME, organism-based; conditions: in vivo, iv
[21] = Mean residence time in human given 31 administration across 6 doses 2.5 to 25 mg administered 30 mins infusion each dose separated by 13 days; assay type: ADME, organism-based; conditions: in vivo, iv
[22] = Clearance in human administered three way cross over study in 11, 10 and 12 healthy subjects at 5, 10, 15 mg dose respectively as 1 hr infusion; assay type: ADME, organism-based; conditions: in vivo, intravenous
[23] = Half life in human given 31 administration across 6 doses 2.5 to 25 mg administered 30 mins infusion each dose separated by 13 days; assay type: ADME, organism-based; conditions: in vivo, iv
[24] = Mean residence time in human administered three way cross over study in 11, 10 and 12 healthy subjects at 5, 10, 15 mg dose respectively as 1 hr infusion; assay type: ADME, organism-based; conditions: in vivo, intravenous
[25] = Half life in human administered three way cross over study in 11, 10 and 12 healthy subjects at 5, 10, 15 mg dose respectively as 1 hr infusion; assay type: ADME, organism-based; conditions: in vivo, intravenous
[26] = Volume of distribution at steady state in human at 2.8 mg, iv; assay type: ADME, organism-based; conditions: in vivo, read-out: Vdss
[27] = Volume of distribution at steady state in human at 0.149 mg/kg, iv; assay type: ADME, organism-based; parameters: dose 0.149 mg/kg, route intravenous; conditions: in vivo, read-out: Vdss
[28] = Volume of distribution at steady state in human at 100 mg, iv; assay type: ADME, organism-based; conditions: in vivo, read-out: Vdss
[29] = Volume of distribution at steady state in human at 5 mg, iv; assay type: ADME, organism-based; conditions: in vivo, read-out: Vdss
[30] = Volume of distribution at steady state in human at 10 mg, iv; assay type: ADME, organism-based; conditions: in vivo, read-out: Vdss
[31] = Volume of distribution at steady state in human at 15 ng/kg/min, iv administered 150 mins infusion; assay type: ADME, organism-based; conditions: in vivo, read-out: Vdss

## CC(C)(N)CC(=O)N[C@@H]1CCc2ccccc2N(Cc2ccc(-c3ccccc3-c3nnn[nH]3)cc2)C1=O
[1]
  Vd: 0.2 L/kg

## CC(=O)Nc1ccc(C2=NNC(=O)C[C@H]2C)cc1
[2]
  Vd: 2.38 L/kg
[3]
  clearance: 33.3 mL/min

## COC(=O)c1cnc2n1CCc1ccccc1C2=C1CCN(CCc2ccc(OCc3ccc4ccccc4n3)cc2)CC1
[4]
  Vd: 6.03 L/kg

## CC(=O)CC(c1ccc([N+](=O)[O-])cc1)c1c(O)c2ccccc2oc1=O (stereo not drawn) [ACENOCOUMAROL]
[5]
  Vd: 0.24 L/kg

## C[C@@H]1[C@H](O)[C@@H](C)/C=C/C=C/C=C/C=C/C=C/C=C/C=C/[C@H](O[C@@H]2O[C@H](C)[C@@H](O)[C@H](N)[C@@H]2O)C[C@@H]2O[C@](O)(C[C@@H](O)C[C@@H](O)[C@H](O)CC[C@@H](O)C[C@@H](O)CC(=O)O[C@H]1C)C[C@H](O)[C@H]2C(=O)O [AMPHOTERICIN B]
[2]
  Vd: 0.62 L/kg

## CC(=O)N(CCC(CCN1CCCCC1)(C(N)=O)c1ccccc1Cl)C(C)C (stereo not drawn) [BIDISOMIDE]
[6]
  Vd: 2.6 L/kg

## COCCOC[C@H](CC1(C(=O)N[C@H]2CC[C@@H](C(=O)O)CC2)CCCC1)C(=O)O [CANDOXATRILAT]
[7]
  Vd: 0.25 L/kg

## COc1ccccc1Oc1c(NS(=O)(=O)c2ccc(C)cn2)nc(-c2ccnc(-c3nnn[nH]3)c2)nc1OCCO [CLAZOSENTAN]
[8]
  Vd: 0.23 L/kg

## CCc1nc2c(N)nc3ccccc3c2n1CCCCNS(C)(=O)=O [CPG-52852]
[9]
  MRT: 4.7 h
[10]
  half-life: 7.1 h
[11]
  clearance: 7.7 mL/min/kg

## Nc1ccn([C@@H]2O[C@H](CO)[C@@H](O)[C@@H]2O)c(=O)n1 [CYTARABINE]
[12]
  Vd: 0.67 L/kg

## O=C(O)c1ccc(-n2nc(-c3ccccc3O)nc2-c2ccccc2O)cc1 [DEFERASIROX]
[13]
  Vd: 0.2 L/kg

## OCCN1CCN(CCCN2c3ccccc3Sc3ccc(C(F)(F)F)cc32)CC1 [FLUPHENAZINE]
[14]
  Vd: 2.9 L/kg

## C[C@]12CC[C@@H]3c4ccc(O)cc4C[C@@H](CCCCCCCCC[S+]([O-])CCCC(F)(F)C(F)(F)F)[C@H]3[C@@H]1CC[C@@H]2O (stereo partly drawn) [FULVESTRANT]
[15]
  Vd at 1 h: 4.15 L/kg

## Cc1nccn1CCC(C(N)=O)(c1ccccc1)c1ccccc1 [IMIDAFENACIN]
[16]
  Vd: 1.51 L/kg
[17]
  clearance: 492 mL/min

## CC1(C)[C@@H](O[C@H]2O[C@H](C(=O)O)[C@@H](O)[C@H](O)[C@H]2O[C@H]2O[C@@H](C(=O)O)[C@H](O)[C@@H](O)[C@@H]2O)CC[C@]2(C)[C@H]3C(=O)C=C4[C@@H]5C[C@@](C)(C(=O)O)CC[C@]5(C)CC[C@@]4(C)[C@]3(C)CC[C@@H]12 [ISOGLYCIRRHIZINATE]
[18]
  Vd: 0.05 L/kg

## C[C@@H]1CN([C@H]2CC[C@](C#N)(c3ccc(F)cc3)CC2)CC[C@]1(C(=O)O)c1ccccc1 [LEVOCABASTINE]
[19]
  Vd: 1.17 L/kg

## CN(c1nc2ccccc2s1)C1CCN(C[C@H](O)COc2ccc(F)c(F)c2)CC1 [LUBELUZOLE]
[20]
  clearance: 1.54 mL/min/kg
[21]
  MRT: 23.3 h
[22]
  clearance: 1.8 mL/min/kg
[23]
  half-life: 19.8 h
[24]
  MRT: 28.7 h
[25]
  half-life: 23.5 h

## CC(C)Oc1ccccc1N1CCN(Cc2cccc(C(=O)N3CCCCC3)c2)CC1 [MAZAPERTINE]
[26]
  Vd: 1.54 L/kg

## CO[C@H]1C[C@H](O[C@H]2[C@H](C)[C@@H](O[C@@H]3O[C@H](C)C[C@H](N(C)C)[C@H]3O)[C@@H](C)C[C@@]3(CO3)C(=O)[C@H](C)[C@@H](O)[C@@H](C)[C@@H](C)OC(=O)[C@@H]2C)O[C@@H](C)[C@@H]1O [OLEANDOMYCIN]
[2]
  Vd: 0.77 L/kg

## Cc1nc(=O)c(C#N)c(NCc2cccnc2)[nH]1 [PELRINONE]
[27]
  Vd: 0.39 L/kg

## O=C(O)CCCCO/N=C(/c1cccnc1)c1cccc(C(F)(F)F)c1 [RIDOGREL]
[28]
  Vd: 0.43 L/kg

## Cc1nc2sccn2c(=O)c1CCN1CCC(=C(c2ccc(F)cc2)c2ccc(F)cc2)CC1 [RITANSERIN]
[29]
  Vd: 1.41 L/kg

## CN(c1nc2ccccc2s1)C1CCN(CC(O)COc2ccc(F)cc2)CC1 (stereo not drawn) [SABELUZOLE]
[30]
  Vd: 5.5 L/kg

## CCCCC[C@H](O)CC[C@@H]1[C@H]2Cc3cccc(OCC(=O)O)c3C[C@H]2C[C@H]1O [TREPROSTINIL]
[31]
  Vd: 0.23 L/kg

From ChEMBL document CHEMBL1158480, “In silico prediction of volume of distribution in human using linear and nonlinear models on a 669 compound data set” (J Med Chem, 2009)
